Where a name gives a salt, the structure may show the parent alone.
target: Sigma receptor; test: Sigma receptor binding assay (3H-DTG, guinea pig brain crude membrane fraction); conditions: inhibition of 3H-DTG binding to guinea pig brain crude membrane fraction, 25° C., 1 hour
Experimental: Sigma Receptor Binding Assay
(1) Preparation of Receptor
Ten male guinea pigs (Crj, Hartley, from Charles River Japan, Inc.) (body weight: 234 g to 260 g) were decapitated, exsanguinated and died. The brain was immediately removed, homogenized with ten volumes of 50 mM Tris-HCl (pH 7.4) using a Teflon homogenizer and was centrifuged at a rate of 50000× g at 4° C. for 20 minutes. The washing procedure was repeated once more under the same conditions, and the resulting crude membrane fraction was subjected to the assay.
The filter paper was transferred to a vial for radioactivity measurement, mixed with 5 mL of a liquid scintillation cocktail (Atomlight, from PACKARD), and the radioactivity on the filter was determined by a liquid scintillation counter (Model 1500, from PACKARD) for 2 minutes. The specific binding and the non-specific binding in the absence of the test compound were determined in the same way as above except for using 50% DMSO solution instead of the test compound and using a 100 μM Haloperidol solution instead of the test compound, respectively.
(3) Determination of Inhibition
The inhibitions of the test compound at individual concentrations were determined from the ratio of the specific binding in the presence of the test compound to the specific binding in the absence thereof. The dose-response curve was regressed according to a logit-log model in which the ratio of the specific binding in the presence of the test compound to the specific binding in the absence thereof was subjected to logit transformation and plotted against the common logarithm value of each concentration.

SMILES	IC50 [nM]
CCOc1cc2c(cc1OC)CC(CC1CCN(Cc3ccccc3)CC1)C2=O (centres unmarked) [Example 1, 1-benzyl-4-[(6-ethoxy-5-methoxy-1-indanon)-2-yl]methylpiperidine hydrochloride]	5.1
CCOc1cc2c(cc1OC)CC(F)(CC1CCN(Cc3ccccc3)CC1)C2=O (centres unmarked) [Example 37, 1-benzyl-4-[(6-ethoxy-2-fluoro-5-methoxy-1-indanon)-2-yl]methylpiperidine hydrochloride]	4.3
CCOc1cc2c(cc1OCC)C(=O)C(Cl)(CC1CCN(Cc3ccccc3)CC1)C2.Cl (centres unmarked) [Example 68, 1-Benzyl-4-[(5,6-diethoxy-2-chloro-1-indanon)-2-yl]methylpiperidine hydrochloride]	2.6

same assay, conditions: result in words, no value given

SMILES	sigma receptor binding action
COc1cc2c(cc1OC)C(=O)C(Cl)(CC1CCN(Cc3ccccc3)CC1)C2.Cl (centres unmarked) [Example 67, 1-Benzyl-4-[(5,6-dimethoxy-2-chloro-1-indanon)-2-yl]methylpiperidine hydrochloride]	found to have a sigma receptor binding action
CCOc1cc2c(cc1OCC)C(=O)C(Cl)(CC1CCN(Cc3ccccc3)CC1)C2.Cl (centres unmarked) [Example 68, 1-Benzyl-4-[(5,6-diethoxy-2-chloro-1-indanon)-2-yl]methylpiperidine hydrochloride]	found to have a sigma receptor binding action
CCOc1cc2c(cc1OC)C(=O)C(Cl)(CC1CCN(Cc3ccccc3)CC1)C2.Cl (centres unmarked) [Example 69, 1-Benzyl-4-[(5-ethoxy-6-methoxy-2-chloro-1-indanon)-2-yl]methylpiperidine hydrochloride]	found to have a sigma receptor binding action
COc1cc2c(cc1OC)C(=O)C(Br)(CC1CCN(Cc3ccccc3)CC1)C2.Cl (centres unmarked) [Example 70, 1-Benzyl-4-[(5,6-dimethoxy-2-bromo-1-indanon)-2-yl]methylpiperidine hydrochloride]	found to have a sigma receptor binding action
COc1cc2c(cc1OC)C(=O)C(C)(CC1CCN(Cc3ccccc3)CC1)C2.Cl (centres unmarked) [Example 71, 1-Benzyl-4-[(5,6-dimethoxy-2-methyl-1-indanon)-2-yl]methylpiperidine hydrochloride]	found to have a sigma receptor binding action

tested on: sigma receptor; test: not given; conditions: disclosed in J. Med. Chem. 37, 364 (1994), Neuroscience Lett. 260, 5 (1999), JP-A 11-349481; cited from earlier work

SMILES	sigma receptor binding action
COc1cc2c(cc1OC)C(=O)C(C1CCN(Cc3ccccc3)CC1)C2 (centres unmarked) [1-benzyl-4-(5,6-dimethoxy-1-indanon)-2-yl]piperidine]	has a sigma receptor binding action
COc1cc2c(cc1OC)C(=O)C(CC1CCN(Cc3ccccc3)CC1)C2 (centres unmarked) [1-benzyl-4-[(5,6-dimethoxy-1-indanon)-2-yl]methylpiperidine]	has a sigma receptor binding action

target: T1, acetylcholinesterase (Rattus norvegicus, UniProt P37136); test: Inhibitory effect on acetylcholinesterase (Ellman method, rat brain homogenate); type: biochemical; conditions: rat brain homogenate as source of acetylcholinesterase; read-out: Acetylcholinesterase inhibition IC50
T1 construct: from tissue; host or cells: rat brain homogenate
T1 sequence (P37136 32-614): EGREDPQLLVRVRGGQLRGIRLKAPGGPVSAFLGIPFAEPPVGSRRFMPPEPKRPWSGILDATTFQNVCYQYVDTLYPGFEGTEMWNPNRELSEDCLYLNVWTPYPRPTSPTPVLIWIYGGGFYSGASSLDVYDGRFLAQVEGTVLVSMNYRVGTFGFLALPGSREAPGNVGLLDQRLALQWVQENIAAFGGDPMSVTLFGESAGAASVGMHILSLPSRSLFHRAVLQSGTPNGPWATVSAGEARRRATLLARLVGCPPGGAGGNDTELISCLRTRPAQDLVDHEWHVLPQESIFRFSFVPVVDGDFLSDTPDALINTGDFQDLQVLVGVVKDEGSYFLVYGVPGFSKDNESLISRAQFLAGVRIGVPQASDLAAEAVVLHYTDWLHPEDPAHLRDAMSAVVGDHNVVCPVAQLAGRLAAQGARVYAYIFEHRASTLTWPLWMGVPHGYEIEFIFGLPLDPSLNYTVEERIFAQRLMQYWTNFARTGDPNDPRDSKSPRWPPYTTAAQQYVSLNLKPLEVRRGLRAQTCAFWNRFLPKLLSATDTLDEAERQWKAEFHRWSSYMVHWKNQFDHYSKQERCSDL
Experimental: Inhibitory Effect on Acetylcholinesterase
To DTNB (5,5′-dithiobis(2-nitrobenzoic acid)), acethylthiocholine (as a substrate) and a test compound was added the rat brain homogenate and incubated.

SMILES	IC50 [nM]
CCOc1cc2c(cc1OC)CC(CC1CCN(Cc3ccccc3)CC1)C2=O (centres unmarked) [Example 1, 1-benzyl-4-[(6-ethoxy-5-methoxy-1-indanon)-2-yl]methylpiperidine hydrochloride]	7.2
CCCOc1cc2c(cc1OC)C(=O)C(CC1CCN(Cc3ccccc3)CC1)C2 (centres unmarked) [Example 2, 1-benzyl-4-[[5-methoxy-6-(1-propyloxy)-1-indanon]-2-yl]methylpiperidine hydrochloride]	2.7
COc1cc2c(cc1OCC#N)CC(CC1CCN(Cc3ccccc3)CC1)C2=O (centres unmarked) [Example 7, 1-benzyl-4-[(5-cyanomethoxy-6-methoxy-1-indanon)-2-yl]methylpiperidine hydrochloride]	2.4
CCOc1cc2c(cc1OCC)C(=O)C(CC1CCN(Cc3cccc(F)c3)CC1)C2 (centres unmarked) [Example 9, 1-(3-fluorobenzyl)-4-[(5,6-diethoxy-1-indanon)-2-yl]methylpiperidine hydrochloride]	3.4
CCOc1cc2c(cc1OCC)C(=O)C(CC1CCN(Cc3cccc(C)c3)CC1)C2 (centres unmarked) [Example 15, 1-(3-methylbenzyl)-4-[(5,6-diethoxy-1-indanon)-2-yl]methylpiperidine hydrochloride]	9.1
CCOc1cc2c(cc1OC)CC(F)(CC1CCN(Cc3ccccc3)CC1)C2=O (centres unmarked) [Example 37, 1-benzyl-4-[(6-ethoxy-2-fluoro-5-methoxy-1-indanon)-2-yl]methylpiperidine hydrochloride]	0.73
CCOc1cc2c(cc1OC)C(=O)C(F)(CC1CCN(Cc3ccccc3)CC1)C2 (centres unmarked) [Example 38, 1-benzyl-4-[(5-ethoxy-2-fluoro-6-methoxy-1-indanon)-2-yl]methylpiperidine hydrochloride]	0.28
CCOc1cc2c(cc1OCC)C(=O)C(F)(CC1CCN(Cc3cccc(Cl)c3)CC1)C2 (centres unmarked) [Example 44, 1-(3-chlorobenzyl)-4-[(5,6-diethoxy-2-fluoro-1-indanon)-2-yl]methylpiperidine hydrochloride]	0.75
CCOc1cc2c(cc1OCC)C(=O)C(F)(CC1CCN(Cc3cccc(C)c3)CC1)C2 (centres unmarked) [Example 47, 1-(3-methylbenzyl)-4-[(5,6-diethoxy-2-fluoro-1-indanon)-2-yl]methylpiperidine hydrochloride]	1
CCOc1cc2c(cc1OCC)C(=O)C(F)(CC1CCN(CC3CCCCC3)CC1)C2 (centres unmarked) [Example 50, 1-cyclohexylmethyl-4-[(5,6-diethoxy-2-fluoro-1-indanon)-2-yl]methylpiperidine hydrochloride]	1.9

Reference: patent US20050107432A1, “Sigma receptor binder containing indanone derivative” (priority 2002, published 2005)
